Source: US12274703B2, “Compositions and methods of treatment for neurological disorders comprising a dementia” (Gliapharm SA, priority 2017, dated 2025)

Key:
primary mouse astrocytes [1] = test: Extracellular lactate quantification, Example 2; type: cell-based; settings: Astrocyte, 3 nM to 30 μM, 1.5 h, read-out: EC50 release of lactate
Experimental: (§1) Primary cultures of cerebrocortical astrocytes were obtained from 1 to 2-day-old OF1 mouse pups (Charles River). Briefly, cortices were isolated and minced in small pieces under a dissecting microscope. The cells were incubated for 30 min at 37° C. in a solution containing 20 U/ml papain, 1 mM L-cysteine and 10 kU/ml DNase I. After dissociation, papain activity was stopped by the addition of fetal calf serum (FCS). Single-cell suspension was then obtained by mechanical dissociation, which consisted in cells trituration in a DMEM D7777 medium supplemented with 44 mm NaHCO3, 10 ml/L antibiotic/antimycotic solution and 10% FCS. […]
Secretion of L-lactate was measured in the extracellular medium of 96-well plated astrocytes after 90 min stimulation (at 37° C., in 5% CO2/95% air conditions) with Vehicle (DMSO), the compounds of the invention (100 nM to 100 μM) or positive control. […] To quantify lactate concentrations in the extracellular medium, 200 μl of a 0.2M Glycine-semicarbazide buffer (pH 10) containing 3 mM NAD and 14 U/ml LDH was added to each well of a 96-well plate containing 30 μl aliquots of extracellular medium. […] Fluorescence intensity (340 nm excitation/450 nm emission), which represents the amount of NADH produced, was measured, and lactate concentration values were determined relative to a standard curve of L-lactate concentrations. […]

primary mouse astrocytes [2] = test: Extracellular medium acidification (SNARF5), Example 2; type: cell-based; settings: Astrocyte, 3 nM to 30 μM, 1.5 h and 3 h
Experimental: as §1
Secretion of lactate was measured indirectly through the acidification of extracellular medium using extracellular pH sensor SNARE-5F-(AND-6)-CAR (SNARF5). […] After 90 min stimulation, fluorescence was read at exc. […] The ratio of fluorescence between 630 nm and 580 emission values, which is proportional to extracellular pH, was calculated. […]
The extracellular medium acidification in primary mouse astrocytes treated with GP-A1 was quantified (FIG. 13). Extracellular medium acidification was measured over a period of 1.5 h and 3 h.

[3] = In vivo pharmacokinetics (PFC microdialysis and plasma); parameters: species or system mouse; settings: after gavage with 100 mg/kg; sustained over several hours
Experimental: Mice were anesthetized using isoflurane (2% and 800 mL/min 02). Before surgery, Finadyne (1 mg/kg, s.c.) was administered for analgesia during surgery and the post-surgical recovery period. A mixture of bupivacaine and epinephrine was used for local anesthesia of the incision site of the periost of the skull.
The animals were placed in a stereotaxic frame (Kopf instruments, USA). MetaQuant microdialysis probes with a 3 mm exposed polyacrylonitrile membrane (MQ-PAN 3/3, Brainlink, the Netherlands) were implanted into the prefrontal cortex (coordinates for the tip of the probe: AP=+2.0 mm (to bregma), lateral=−0.7 mm (to midline), ventral=−3.3 mm (to dura), with the incisor bar set at 0.0 mm and an angle of 8°). All coordinates were based on “The mouse brain in stereotaxic coordinates” by Paxinos and Franklin (2004). The probes were attached to the skull with a stainless steel screw and dental cement (Fuji Plus Capsules, Henry Schein, the Netherlands).
In the same surgical procedure, a catheter was placed into the jugular vein to accommodate blood sampling. An indwelling cannula was inserted into the right jugular vein, and exteriorized through an incision on top of the skull. […]
PK was measured for GP-04, GP-05, GP-07, GP-R1 and GP-P1 in the PFC (prefrontal cortex) and plasma of wild type C56Bl/6 mice by CRO Brainsonline.

EC50 (primary mouse astrocytes [1]) [µM]	EC50 (primary mouse astrocytes [2]) [µM]	SMILES	Levels in the PFC [3]
0.59	0.37 to 0.48	Cc1ccccc1NC(=O)C1CCCN(c2ncnc3oc(C)c(C)c23)C1 (stereo not shown) [F228-0422]	–
–	–	CC(=O)N1CCc2sc(S(=O)(=O)N3CCN(c4ccccc4C)CC3)cc2C1 [P025-0159]	need chemical improvement to reach their target at therapeutic dose in the brain
–	–	COc1cc(C)c(Cl)cc1S(=O)(=O)NCc1ccncc1 [T5580243]	at therapeutic range (100 nM to 1 uM)
